Laboratory results published in US20220315594A1, “METHOD OF SYNTHESIS OF COMPOUND FOR DUAL INHIBITION OF JAK2 AND BET” (OHM ONCOLOGY, priority 2019, published 2022).

Key:
Details in all cases: qualitative statement
[1] = system: cMYC expression; test: cMYC expression down-regulation; format: cell-based
[2] = target: BRD4 BD1 (Homo sapiens, UniProt O60885); test: In vitro biochemical assay, BRD4 BD1 inhibition
[3] = system: multiple liquid cancer cell lines; test: Anti-proliferative activity against liquid cancer cell lines; format: cell-based
[4] = target: JAK2 (Homo sapiens, UniProt O60674); test: In vitro biochemical assay, JAK2 inhibition
[5] = system: JAK2 signaling; test: JAK2 signaling down-regulation; format: cell-based
[6] = target: BRD4 BD2 (Homo sapiens, UniProt O60885); test: In vitro biochemical assay, BRD4 BD2 inhibition

Chain of JAK2 (O60674 whole entry): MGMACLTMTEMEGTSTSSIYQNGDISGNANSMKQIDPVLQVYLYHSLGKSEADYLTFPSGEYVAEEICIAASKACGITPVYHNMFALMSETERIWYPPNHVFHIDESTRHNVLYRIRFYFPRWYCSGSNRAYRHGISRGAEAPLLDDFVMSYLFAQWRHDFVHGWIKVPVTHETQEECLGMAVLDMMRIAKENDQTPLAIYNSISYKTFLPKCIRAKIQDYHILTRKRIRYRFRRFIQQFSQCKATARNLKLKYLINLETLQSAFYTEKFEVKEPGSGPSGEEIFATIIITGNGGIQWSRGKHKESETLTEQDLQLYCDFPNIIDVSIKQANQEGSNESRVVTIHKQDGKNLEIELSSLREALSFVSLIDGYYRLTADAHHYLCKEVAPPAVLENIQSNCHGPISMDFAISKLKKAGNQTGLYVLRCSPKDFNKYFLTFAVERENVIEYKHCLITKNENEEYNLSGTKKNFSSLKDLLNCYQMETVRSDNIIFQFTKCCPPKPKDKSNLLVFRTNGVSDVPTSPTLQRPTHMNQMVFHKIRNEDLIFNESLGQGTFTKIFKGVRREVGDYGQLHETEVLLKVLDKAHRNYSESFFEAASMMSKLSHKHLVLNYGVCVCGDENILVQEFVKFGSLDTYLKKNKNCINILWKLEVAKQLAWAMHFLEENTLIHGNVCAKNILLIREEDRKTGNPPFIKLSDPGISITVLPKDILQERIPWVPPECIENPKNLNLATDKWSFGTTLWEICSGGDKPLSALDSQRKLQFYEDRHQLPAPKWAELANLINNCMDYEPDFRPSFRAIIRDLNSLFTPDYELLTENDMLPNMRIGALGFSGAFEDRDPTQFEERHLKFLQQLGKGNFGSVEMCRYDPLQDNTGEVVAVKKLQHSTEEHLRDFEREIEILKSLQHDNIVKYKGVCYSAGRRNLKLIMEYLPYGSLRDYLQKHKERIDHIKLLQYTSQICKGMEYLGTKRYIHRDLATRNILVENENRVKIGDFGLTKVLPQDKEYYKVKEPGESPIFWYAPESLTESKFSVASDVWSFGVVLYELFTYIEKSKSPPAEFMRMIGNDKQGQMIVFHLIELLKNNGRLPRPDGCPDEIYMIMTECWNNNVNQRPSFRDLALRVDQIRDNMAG

With CN(C)C1CCN(c2ccc(Nc3ncc4ccn(-c5cccc(NS(=O)(=O)C(C)(C)C)c5)c4n3)cc2F)CC1 [OHM-581, N-(3-(2-((4-(4-(dimethylamino)piperidin-1-yl)-3-fluorophenyl)amino)-7H-pyrrolo[2,3-d]pyrimidin-7-yl)phenyl)-2-methylpropane-2-sulfonamide] the cMYC expression [1] was “robustly down-regulates”, the “inhibition of BRD4 BD1” value [2] was “inhibit” and the anti-proliferative activity [3] was “significant anti-proliferative activity”. The “inhibition of JAK2” value [4] was “inhibit”, the JAK2 signaling [5] was “robustly down-regulates” and the “inhibition of BRD4 BD2” value [6] was “inhibit”.
